The record followed here is patent US20200308165A1, “Compounds as Ras Inhibitors and Use Thereof” (D.E. Shaw Research, LLC, priority 2017, published 2020).

One test concerns the target GDP-loaded K-Ras (Homo sapiens, UniProt P01116). Description: Thermophoresis binding assay. On the procedure: The thermophoresis binding assay measures the changes in the movement of KRAS along a temperature gradient as a result of compound binding. In this assay, K-Ras is fluorescently labeled and the thermophoretic movement is measured by monitoring the fluorescence distribution inside a capillary. Compounds of varies concentrations were titrated and the fluorescence distribution signal was measured after 30 seconds or until the diffusion equilibrium is stable. The apparent binding affinity Kd is calculated by fitting the normalized fluorescence distribution values along the concentration axis.

Test [1] concerns the target T1, Ras protein (Homo sapiens, UniProt P01116). Description: Nucleotide exchange rate IC50 assay (SOS1, mant-GDP), Example 18. Format: biochemical. An excerpt:
(§1) The IC50 assay measures the reduction effect of a given compound on the guanine nucleotide-exchange rate of Ras protein in the presence of guanine nucleotide exchange protein SOS1, which is a Ras activator. In the assay GDP-loaded Ras is first prepared in a buffer containing the compound at certain concentration and fluorescent guanine nucleotide (mant-GDP). The guanine nucleotide exchange was initiated by the addition of the SOS1 and its rate was reflected in the rate of fluorescence change as a function of time, which was monitored by a reader. The experiment was repeated at different compound concentrations and the IC50 of the compound was defined as the compound concentration at which half of its maximal reduction effect on the guanine nucleotide exchange rate is achieved.

For another test, the target named is T2, KRAS4B (wild type) (Homo sapiens, UniProt P01116).
T2 construct: purchased Cytoskeleton CS-RS03 (K-Ras4B); CS-SOS1-A (SOS1)
T2 sequence (P01116 1-188 isoform P01116-2): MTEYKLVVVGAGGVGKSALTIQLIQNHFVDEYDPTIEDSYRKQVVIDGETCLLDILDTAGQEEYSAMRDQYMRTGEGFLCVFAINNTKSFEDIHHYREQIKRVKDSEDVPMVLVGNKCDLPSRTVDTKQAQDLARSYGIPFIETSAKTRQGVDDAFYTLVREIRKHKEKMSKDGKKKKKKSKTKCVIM
Put plainly: K-Ras Nucleotide Exchange Assay-384 (SOS Exchange Assay by Cytoskeleton, GTPx_Cyt_IC50). Format: biochemical. To be noted: 1 μM KRAS4B, 0.05 μM SOS1, 1.5 μM mant-GDP. On the procedure:
Example 16. Evaluation of Biological Activities: K-Ras Nucleotide Exchange Assay-384 (SOS Exchange Assay by Cytoskeleton (GTPx_Cyt_IC50))
This assay is used to evaluate inhibitors of K-ras, by monitoring the inhibition of nucleotide exchange over time, in the presence of the protein SOS.
384-well black, untreated plates (Corning 3820 with NBS or 3821 untreated) were used. K-Ras4B Protein was used, which is wild-type (Cytoskeleton #CS-RS03) with a concnetration of 5 mg/ml, or 200 μM. Human SOS1 Protein, Exchange Domain 564-1049 (Cytoskeleton # CS-SOS1-A) was used in a concentration of 3.03 mg/ml or 50 μM. Mant-GDP triethylammonium salt solution was purchased from Sigma (catalog No. 69244). 1M stock solution of Hepes was purchased from Sigma (catalog No. H9897). 1M stock solution of MgCl2 was purchased from Sigma (catalog No. M4880). CHAPS, 3% was purchased from Sigma (catalog No. C5070). Nonidet P40 was purchased from Sigma. KOH pellets were purchased from Sigma.
K-ras buffer containing 40 mM Hepes, 10 mM MgCl2, 0.05% CHAPS, 0.01% NP40 with a pH 7.5 was prepared as follows: to a Buffer base containing 4 ml 1M Hepes, 1 ml MgCl2,
93.3 ml d-H2O, pH 7.5 (with KOH pellets), 1.7 ml 3% CHAPS was added, followed by the addition of 1 ml 1% NP40.
Final Conditions of the method included 1 μM KRAS4B (wild type), 0.05 μM SOS1, 1.5 μM mant-GDP. Reagent Preparation included: thawing aliquots of KRAS, SOS, and mant-GDP; preparing 3x KRAS (3 uM) in assay buffer; preparing 3x SOS/mant-GDP (150 nM/4.5 uM) in assay buffer; and preparing 3x compounds in assay buffer.
Assay Procedure (1536) used 3.3 μl, 3x Kras, 3.3 μl 3x compound with preincubate 0 hour, and […] 3x SOS/mant-GDP. A kinetic read measuring fluorescence at 360_450 was performed for 30 min at 30 second intervals.
Reference compound SCH 54292 (reversible inhibitor) at about 100 μM was used with no preincubation. Reagents were only stable for 45 min on ice, and therefore were prepared fresh before each assay. Partial plates (up to 9 columns) were run at a time to minimize effects due to the amount of time it takes to read a whole plate. SOS/mant-GDP were added with an automated pipettor to initiate all reactions at the same time. Assay was typically performed at 0.5% solution in DMSO (compounds prepared in 1.5% DMSO initially).
Clariostar Settings were as follows. Test Name was Kras Kinetic 360-450. Basic settings of the test included Measurement type as Fluorescence (FI), and Microplate name as Corning 3820. Plate mode settings included 61 cycles, 30 second cycle time, and 10 flashes per well. Optic settings were as follows. Excitation wavelength was 360 nm. Emission wavelength was 450 nM. Excitation bandwidth was 12 nm. Emission bandwidth was 12 nm. Dichroic filter 405 was used. D6 Well(s) was used for gain adjustment. No shaking was used. General settings were as follows. Top optic was used. Settling time was 0.1 second. Reading direction was bidirectional, horizontal left to right, and bottom to top. The target temperature was 25° C.

Test [2] addresses T1, Ras protein. Put plainly: GDPx_Icagen_IC50: SOS1-mediated guanine nucleotide exchange rate of Ras (mant-GDP). Particulars: SOS1-initiated exchange. Format: biochemical.
Description: as §1, with “In some embodiments, the IC50” for “The IC50”, “guanine nucleotide-echange” for “guanine nucleotide-exchange”, “Ras was” for “Ras is”, “nucleotide (mant-GDP (used in Icagene assay) or mant-GTP (used in other IC50 assays).” for “nucleotide (mant-GDP).”, “achieved. In other embodiments, other Ras activator proteins may be used. Non-limiting examples of other Ras activator proteins include RasGRP (Ras guanyl-releasing protein).” for “achieved.”
Example 17. Evaluation of Biological Activities: GDPx_Icagen_ICso
as §1

T1 sequence (P01116 1-188 isoform P01116-2): as above
Chain of GDP-loaded K-Ras (P01116 1-188 isoform P01116-2): as above

Consider `Cc1nnc(SCc2[nH]n(-c3nc4ccccc4[nH]3)c(=O)c2C)s1` [Compound 188, 2-(1H-benzo[d]imidazol-2-yl)-4-methyl-5-(((5-methyl-1,3,4-thiadiazol-2-yl)thio)methyl)-1,2-dihydro-3H-pyrazol-3-one], for which, on GDP-loaded K-Ras, the Kd (commonly the equilibrium constant for the complex coming apart) is 520 nM. Also, the IC50 (as a rule, the concentration that gives 50% inhibition) against Ras protein [1] is approximately 800 nM.
For `COC(=O)c1ccc2[nH]c(-n3[nH]c(CSc4nnc(C)s4)c(C)c3=O)nc2c1` [Compound 189, methyl 2-(4-methyl-3-(((5-methyl-1,3,4-thiadiazol-2-yl)thio)methyl)-5-oxo-2,5-dihydro-1H-pyrazol-1-yl)-1H-benzo[d]imidazole-5-carboxylate] the same measures were 413 nM and approximately 700 nM.
For `Cc1cc(C)nc(CSCc2cc(=O)n(-c3nc4ccccc4[nH]3)[nH]2)n1` [Compound 164, 2-(1H-benzo[d]imidazol-2-yl)-5-((((4,6-dimethylpyrimidin-2-yl)methyl)thio)methyl)-1,2-dihydro-3H-pyrazol-3-one], the IC50 is 630 nM on KRAS4B (wild type) and 22000 nM against Ras protein [2].
For the compound `Cc1cc(C)nc(SCc2cc(=O)n(-c3nc4ccccc4[nH]3)[nH]2)n1` [Compound 146, 2-(1H-benzo[d]imidazol-2-yl)-5-(((4,6-dimethylpyrimidin-2-yl)thio)methyl)-1,2-dihydro-3H-pyrazol-3-one], the IC50 at KRAS4B (wild type) worked out at 2600 nM; against Ras protein [2], 1800 nM.
For `O=c1cc(CSc2ccc(Br)cn2)[nH]n1-c1nc2ccccc2[nH]1` [Compound 158, 2-(1H-benzo[d]imidazol-2-yl)-5-(((5-bromopyridin-2-yl)thio)methyl)-1,2-dihydro-3H-pyrazol-3-one] the same measures were 530 nM and 200 nM.
For `O=c1cc(CSc2cccc(Cl)c2)[nH]n1-c1nc2ccccc2[nH]1` [Compound 171, 2-(1H-benzo[d]imidazol-2-yl)-5-(((3-chlorophenyl)thio)methyl)-1,2-dihydro-3H-pyrazol-3-one] the same measures were 100000 nM and 170 nM.
